Reference: ChEMBL document CHEMBL1687756 (Antimicrob Agents Chemother, 2010)

Key:
[1] = Cmax in Beagle dog at 5 mg/kg, sc after 176 days; type: ADME, organism-based, Canis lupus familiaris; set-up: dose 5 mg/kg, route subcutaneous; details: in vivo
[2] = AUC (0 to last) in Beagle dog at 5 mg/kg, sc after 176 days; type: ADME, organism-based, Canis lupus familiaris; set-up: time 0 - last, dose 5 mg/kg, route subcutaneous; details: plasma
[3] = Plasma concentration in Beagle dog at 5 mg/kg, sc after 6 months; type: ADME, organism-based, Canis lupus familiaris; set-up: dose 5 mg/kg, route subcutaneous
[4] = Drug level in Beagle dog skin at injected site at 5 mg/kg administered intramuscularly after 3 months; type: ADME, organism-based, Canis lupus familiaris, Zone of skin; set-up: dose 5 mg/kg, route intramuscular; details: im, read-out: Drug uptake
[5] = Drug level in Beagle dog skin at injected site at 5 mg/kg administered intramuscularly after 6 months; type: ADME, organism-based, Canis lupus familiaris, Zone of skin; set-up: dose 5 mg/kg, route intramuscular; details: im, read-out: Drug uptake
[6] = Drug level in Beagle dog skin at non-injected site at 5 mg/kg, sc after 3 months; type: ADME, organism-based, Canis lupus familiaris, Zone of skin; set-up: dose 5 mg/kg, route subcutaneous; details: read-out: Drug uptake
[7] = Plasma concentration in male Beagle dog at 200 mg/kg administered intramuscularly after 3 months; type: ADME, organism-based, Canis lupus familiaris; set-up: dose 200 mg/kg, route intramuscular; details: im
[8] = Drug level in male Beagle dog thymus at 400 mg/kg, sc after 3 months; type: ADME, organism-based, Canis lupus familiaris; set-up: dose 400 mg/kg, route subcutaneous; details: read-out: Drug uptake
[9] = Ratio of drug level in thymus to plasma in male Beagle dog at 200 mg/kg, sc after 1 month; type: ADME, organism-based, Canis lupus familiaris; set-up: dose 200 mg/kg, route subcutaneous
[10] = Plasma concentration in Beagle dog at 5 mg/kg, sc after 1 month; type: ADME, organism-based, Canis lupus familiaris; set-up: dose 5 mg/kg, route subcutaneous
[11] = Ratio of drug level in liver to plasma in Beagle dog at 5 mg/kg, sc after 3 months; type: ADME, organism-based, Canis lupus familiaris; set-up: dose 5 mg/kg, route subcutaneous
[12] = Drug level in Beagle dog lymph node iliac at 5 mg/kg administered intramuscularly after 1 month; type: ADME, organism-based, Canis lupus familiaris; set-up: dose 5 mg/kg, route intramuscular; details: im, read-out: Drug uptake
[13] = Drug level in Beagle dog lymph node iliac at 5 mg/kg, sc after 6 months; type: ADME, organism-based, Canis lupus familiaris; set-up: dose 5 mg/kg, route subcutaneous; details: read-out: Drug uptake
[14] = Drug level in Beagle dog lymph node popliteal at 5 mg/kg, sc after 6 months; type: ADME, organism-based, Canis lupus familiaris; set-up: dose 5 mg/kg, route subcutaneous; details: read-out: Drug uptake
[15] = Ratio of drug level in lymph node popliteal to plasma in Beagle dog at 5 mg/kg, sc after 3 months; type: ADME, organism-based, Canis lupus familiaris; set-up: dose 5 mg/kg, route subcutaneous
[16] = Ratio of drug level in lymph node mandibular to plasma in Beagle dog at 5 mg/kg, sc after 6 months; type: ADME, organism-based, Canis lupus familiaris; set-up: dose 5 mg/kg, route subcutaneous
[17] = Drug level in Beagle dog thymus at 5 mg/kg administered intramuscularly after 6 months; type: ADME, organism-based, Canis lupus familiaris; set-up: dose 5 mg/kg, route intramuscular; details: im, read-out: Drug uptake
[18] = Plasma concentration in male Beagle dog at 200 mg/kg, sc after 1 month; type: ADME, organism-based, Canis lupus familiaris; set-up: dose 200 mg/kg, route subcutaneous
[19] = Drug level in male Beagle dog spleen at 400 mg/kg, sc after 1 month; type: ADME, organism-based, Canis lupus familiaris; set-up: dose 400 mg/kg, route subcutaneous; details: read-out: Drug uptake
[20] = Drug level in male Beagle dog thymus at 400 mg/kg administered intramuscularly after 1 month; type: ADME, organism-based, Canis lupus familiaris; set-up: dose 400 mg/kg, route intramuscular; details: im, read-out: Drug uptake
[21] = Plasma concentration in female Beagle dog at 400 mg/kg, sc after 1 month; type: ADME, organism-based, Canis lupus familiaris; set-up: dose 400 mg/kg, route subcutaneous; details: read-out: Drug uptake
[22] = Drug level in female Beagle dog spleen at 400 mg/kg administered intramuscularly after 1 month; type: ADME, organism-based, Canis lupus familiaris; set-up: dose 400 mg/kg, route intramuscular; details: im, read-out: Drug uptake
[23] = Drug level in female Beagle dog thymus at 200 mg/kg, sc after 1 month; type: ADME, organism-based, Canis lupus familiaris; set-up: dose 200 mg/kg, route subcutaneous; details: read-out: Drug uptake
[24] = Drug level in female Beagle dog thymus at 200 mg/kg administered intramuscularly after 1 month; type: ADME, organism-based, Canis lupus familiaris; set-up: dose 200 mg/kg, route intramuscular; details: im, read-out: Drug uptake
[25] = Ratio of drug level in spleen to plasma in female Beagle dog at 400 mg/kg, sc after 1 month; type: ADME, organism-based, Canis lupus familiaris; set-up: dose 400 mg/kg, route subcutaneous
[26] = Ratio of drug level in thymus to plasma in female Beagle dog at 400 mg/kg administered intramuscularly after 1 month; type: ADME, organism-based, Canis lupus familiaris; set-up: dose 400 mg/kg, route intramuscular; details: im
[27] = system: Canis familiaris; test: Toxicity in Beagle dog assessed as untoward effects at 20 mg/kg, sc; type: organism-based, Canis lupus familiaris; set-up: dose 20 mg/kg, route subcutaneous; details: in vivo
[28] = system: Canis familiaris; test: Toxicity in Beagle dog assessed as white deposits at 20 mg/kg administered intramuscularly after 3 months; type: organism-based, Canis lupus familiaris; set-up: dose 20 mg/kg, route intramuscular; details: in vivo, im, 2191.5 h
[29] = system: Canis familiaris; test: Toxicity in Beagle dog assessed as inflammatory signs at 20 mg/kg administered intramuscularly after 3 months; type: organism-based, Canis lupus familiaris; set-up: dose 20 mg/kg, route intramuscular; details: in vivo, im, 2191.5 h
[30] = system: Canis familiaris; test: Toxicity in Beagle dog assessed as abscess formation at 20 mg/kg administered intramuscularly after 3 months; type: organism-based, Canis lupus familiaris; set-up: dose 20 mg/kg, route intramuscular; details: in vivo, im, 2191.5 h
[31] = Tmax in male dog at 400 mg administered intramuscularly after 29 days; details: in vivo, im
[32] = Tmax in female dog at 200 mg administered intramuscularly after 85 days; details: in vivo, im

Cc1cc(/C=C/C#N)cc(C)c1Nc1ccnc(Nc2ccc(C#N)cc2)n1 [RILPIVIRINE]
Cmax [1]: 31.4 ng/mL | AUC(0-t) at 4224 h [2]: 19700 ng·h/mL | concentration at 4383 h [3]: 1.3 ng/mL | concentration at 2191.5 h [4]: 16.7 ng/g | concentration at 4383 h [5]: 9.5 ng/g | concentration at 2191.5 h [6]: 24.2 ng/g | concentration at 2191.5 h [7]: 9.2 ng/mL | concentration at 2191.5 h [8]: 173 ng/g | Kp at 730.5 h [9]: 6 | concentration at 730.5 h [10]: 16.8 ng/mL | Kp at 2191.5 h [11]: 14 | concentration at 730.5 h [12]: 19000 ng/g | concentration at 4383 h [13]: 9.9 ng/g | concentration at 4383 h [14]: 5.5 ng/g | Kp at 2191.5 h [15]: 8.2 | Kp at 4383 h [16]: 6.1 | concentration at 4383 h [17]: 7.2 ng/g | concentration at 730.5 h [18]: 95 ng/mL | concentration at 730.5 h [19]: 569 ng/g | concentration at 730.5 h [20]: 634 ng/g | concentration at 730.5 h [21]: 227 ng/g | concentration at 730.5 h [22]: 311 ng/g | concentration at 730.5 h [23]: 536 ng/g | concentration at 730.5 h [24]: 353 ng/g | Kp at 730.5 h [25]: 2.5 | Kp at 730.5 h [26]: 6 | Activity [27]: Non-toxic | Activity [28]: Non-toxic | Activity [29]: Non-toxic | Activity [30]: Non-toxic | Tmax [31]: 17 h | Tmax [32]: 33 min
